Source: article PMC10322725, “Assimilatory sulfate reduction in the marine methanogen Methanothermococcus thermolithotrophicus” (Nature Microbiology, 2023)

Experiments:
MtPAPP [1] = biological target: T1, MtPAPP (Methanothermococcus thermolithotrophicus, UniProt A0AA82WPC3); assay: X-ray crystallography, […] Å; format: binding; conditions: co-crystallized with 2 mM PAP and MnCl2; partially occupied Mn2+ in active site
T1 construct: recombinant in E. coli, codon-optimized gene in pET-28a(+) NdeI/BamHI, HisTrap, tag cleaved if necessary; DHH domain 1-180, linker 181-210, DHHA1 211-315
T1 sequence (A0AA82WPC3 1-315): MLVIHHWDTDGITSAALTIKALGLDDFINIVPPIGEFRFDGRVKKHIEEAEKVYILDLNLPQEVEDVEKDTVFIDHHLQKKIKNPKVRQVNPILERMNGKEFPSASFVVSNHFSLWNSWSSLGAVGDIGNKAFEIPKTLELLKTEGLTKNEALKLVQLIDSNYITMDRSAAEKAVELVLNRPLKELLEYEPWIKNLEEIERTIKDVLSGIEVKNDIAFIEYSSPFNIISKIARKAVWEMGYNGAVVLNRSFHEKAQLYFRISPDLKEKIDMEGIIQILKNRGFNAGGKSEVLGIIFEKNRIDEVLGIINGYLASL

MtATPS = biological target: T2, MtATPS (Methanothermococcus thermolithotrophicus, UniProt A0AA82WPC1); assay: coupled NADH oxidation assay with MtAPSK, pyrophosphatase, pyruvate kinase/lactate dehydrogenase; format: biochemical; conditions: 2.5 mM Na2SO4, 2 mM ATP, Mg2+, pH 7.0, 35 °C; pyrophosphatase rate-limiting
T2 construct: gene sat; recombinant in E. coli, codon-optimized gene in pET-28a(+) NdeI/BamHI, HisTrap, tag cleaved if necessary; homodimer; domains 1-156, 164-314, 320-382
T2 sequence (A0AA82WPC1 4-385): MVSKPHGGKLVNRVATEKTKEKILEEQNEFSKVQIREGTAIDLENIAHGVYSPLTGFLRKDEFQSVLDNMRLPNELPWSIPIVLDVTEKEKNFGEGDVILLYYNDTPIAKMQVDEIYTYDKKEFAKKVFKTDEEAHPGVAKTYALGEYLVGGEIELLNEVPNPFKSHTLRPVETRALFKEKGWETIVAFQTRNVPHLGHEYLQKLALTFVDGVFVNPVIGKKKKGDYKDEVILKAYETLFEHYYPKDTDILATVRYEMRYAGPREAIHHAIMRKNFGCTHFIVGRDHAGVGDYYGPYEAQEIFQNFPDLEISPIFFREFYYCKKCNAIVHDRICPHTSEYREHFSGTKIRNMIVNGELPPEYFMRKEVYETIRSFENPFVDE

MtAPSK = biological target: T3, MtAPSK (Methanothermococcus thermolithotrophicus, UniProt A0AA82WPC2); assay: coupled NADH oxidation assay with MtATPS, pyrophosphatase, pyruvate kinase/lactate dehydrogenase; format: biochemical; conditions: APS generated in situ by MtATPS; 2 mM ATP, Mg2+, pH 7.0, 35 °C
T3 construct: gene cysC; recombinant in E. coli, codon-optimized gene in pET-28a(+) NdeI/BamHI, HisTrap, tag cleaved if necessary; homodimer

MtPAPSR [2] = biological target: T4, MtPAPSR (Methanothermococcus thermolithotrophicus, UniProt A0AA82WPC4); assay: X-ray crystallography, […] Å; format: binding; conditions: bound in alpha subunit; crystal for phasing co-crystallized with 0.5 mM FAD
T4 construct: alpha and beta co-expressed in E. coli from pET-28a(+) NcoI/BamHI, C-terminal His-tag on alpha, anaerobic purification; alpha2beta2 heterotetramer; with Adenylylsulfate reductase subunit beta (PAPS reductase beta subunit)

MtPAPSR [3] = biological target: T4, MtPAPSR; assay: coupled assay, oxidation of reduced methyl viologen at […] nm; format: biochemical; conditions: PAPS generated in situ by MtATPS and MtAPSK, PAP removed by MtPAPP; HEPES pH 7.0, Mn2+, Mg2+, 45 °C, anaerobic
MtPAPP [4] = biological target: T1, MtPAPP; assay: malachite green phosphate assay; format: biochemical; conditions: 40 µM PAP, 50 µM MnCl2, Tris/HCl pH 7.64, 40 °C
[5] = biological target: APS kinase from Methanothermococcus thermolithotrophicus (MtAPSK) (Methanothermococcus thermolithotrophicus); assay: crystal structure; MtAPSK co-crystallized with 2 mM MgCl2, apo state with bound phosphate, sitting drop, 18 °C, aerobic
[6] = biological target: ATP sulfurylase from Methanothermococcus thermolithotrophicus (MtATPS) (Methanothermococcus thermolithotrophicus); assay: SEC; size exclusion chromatography of purified MtATPS; conditions in the supplement

T4 sequence (A0AA82WPC4 entry or part of it): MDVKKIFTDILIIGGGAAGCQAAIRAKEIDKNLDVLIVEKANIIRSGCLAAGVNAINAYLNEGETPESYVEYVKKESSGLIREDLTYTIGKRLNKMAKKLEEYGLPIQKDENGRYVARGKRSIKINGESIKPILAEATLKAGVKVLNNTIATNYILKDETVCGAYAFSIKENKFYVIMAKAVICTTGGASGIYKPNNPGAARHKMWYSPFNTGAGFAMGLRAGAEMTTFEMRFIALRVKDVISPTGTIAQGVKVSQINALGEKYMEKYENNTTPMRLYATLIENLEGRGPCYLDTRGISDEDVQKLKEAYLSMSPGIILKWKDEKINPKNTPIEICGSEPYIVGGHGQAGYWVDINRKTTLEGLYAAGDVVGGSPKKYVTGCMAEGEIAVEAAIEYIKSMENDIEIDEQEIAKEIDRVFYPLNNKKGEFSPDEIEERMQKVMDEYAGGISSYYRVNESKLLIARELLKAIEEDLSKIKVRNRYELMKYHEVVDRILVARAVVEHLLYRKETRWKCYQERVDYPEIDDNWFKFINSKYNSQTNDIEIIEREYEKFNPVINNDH
T4 sequence (A0AA82WPC5 entry or part of it, further chain): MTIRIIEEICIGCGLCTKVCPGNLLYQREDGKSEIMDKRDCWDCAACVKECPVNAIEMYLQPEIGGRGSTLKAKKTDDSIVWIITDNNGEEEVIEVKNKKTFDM
T3 sequence (A0AA82WPC2 entry or part of it): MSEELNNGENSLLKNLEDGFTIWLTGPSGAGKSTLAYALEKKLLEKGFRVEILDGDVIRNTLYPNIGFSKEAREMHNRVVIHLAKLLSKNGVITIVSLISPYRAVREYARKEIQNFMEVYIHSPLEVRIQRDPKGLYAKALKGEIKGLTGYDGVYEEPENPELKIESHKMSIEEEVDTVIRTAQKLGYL

Compound: Nc1ncnc2c1ncn2[C@@H]1O[C@H](COP(=O)(O)O)[C@@H](O)[C@H]1O [AMP]
- X-ray crystallography, 3.1 Å (MtPAPP [1]): contained the product AMP and an ion in its active site

Compound: Nc1ncnc2c1ncn2[C@@H]1O[C@H](COP(=O)(O)OP(=O)(O)OP(=O)(O)O)[C@@H](O)[C@H]1O [ATP]
- coupled NADH oxidation assay with MtAPSK, pyrophosphatase, pyruvate kinase/lacta (MtATPS): activity of the recombinantly expressed MtATPS and MtAPSK was tested via a coupled assay
- coupled NADH oxidation assay with MtATPS, pyrophosphatase, pyruvate kinase/lacta (MtAPSK): determined by the production of ADP which was coupled to NADH oxidation

Compound: Cc1cc2nc3c(=O)[nH]c(=O)nc-3n(C[C@H](O)[C@H](O)[C@H](O)COP(=O)(O)OP(=O)(O)OC[C@H]3O[C@@H](n4cnc5c(N)ncnc54)[C@H](O)[C@@H]3O)c2cc1C [FAD]
- X-ray crystallography, 1.45 Å (MtPAPSR [2]): the α subunit, containing the flavin adenine dinucleotide (FAD)

Compound: Nc1ncnc2c1ncn2[C@@H]1O[C@H](COP(=O)(O)OS(=O)(=O)O)[C@@H](OP(=O)(O)O)[C@H]1O [PAPS]
- coupled assay, oxidation of reduced methyl viologen at 600 nm (MtPAPSR [3]): MtATPS, a pyrophosphatase and the MtAPSK were used to generate PAPS

Compound: Nc1ncnc2c1ncn2[C@@H]1O[C@H](COP(=O)(O)O)[C@@H](OP(=O)(O)O)[C@H]1O [PAP]
- malachite green phosphate assay (MtPAPP [4]): produced inorganic phosphate (Pi) from PAP at fast rates

Compound: O=S(=O)(O)O [SO42−]
- coupled NADH oxidation assay with MtAPSK, pyrophosphatase, pyruvate kinase/lacta (MtATPS): activity of the recombinantly expressed MtATPS and MtAPSK was tested via a coupled assay

Compound: APS kinase from Methanothermococcus thermolithotrophicus (MtAPSK) (enzyme)
- stoichiometry N [5]: 2

Compound: ATP sulfurylase from Methanothermococcus thermolithotrophicus (MtATPS) (enzyme)
- stoichiometry N [6]: 2
